{"source": "patent US11058117B2", "about": "“Benzoxaborole compounds” (BASF SE, priority 2017, dated 2021)", "key": {"Abutilon theophrasti [1]": {"test_system": "Abutilon theophrasti", "assay": "greenhouse post-emergence herbicidal test", "assay_type": "in vivo", "conditions": "scale 0 to 100", "description": "(§1) The culture containers used were plastic flowerpots containing loamy sand with approximately 3.0% of humus as the substrate. The seeds of the test plants were sown separately for each species.\n(§2) For this purpose, the test plants were either sown directly and grown in the same containers, or they were first grown separately as seedlings and transplanted into the test containers a few days prior to treatment.\n(§3) Depending on the species, the plants were kept at 10-25° C. or 20-35° C., respectively.\n(§4) The test period extended over 2 to 4 weeks. During this time, the plants were tended, and their response to the individual treatments was evaluated.\n(§5) Evaluation was carried out using a scale from 0 to 100. 100 means no emergence of the plants, or complete destruction of at least the aerial moieties, and 0 means no damage, or normal course of growth. A moderate herbicidal activity is given at values of at least 60, a good herbicidal activity is given at values of at least 70, and a very good herbicidal activity is given at values of at least 85."}, "Amaranthus retroflexus [2]": {"test_system": "Amaranthus retroflexus", "assay": "greenhouse post-emergence herbicidal test", "assay_type": "in vivo", "conditions": "scale 0 to 100", "description": "as §1, §2, §3, §4, §5"}, "Avena fatua": {"test_system": "Avena fatua", "assay": "greenhouse post-emergence herbicidal test", "assay_type": "in vivo", "conditions": "application rate 2 kg/ha, scale 0 to 100", "description": "as §1, §2, §3, §4, §5"}, "Setaria viridis": {"test_system": "Setaria viridis", "assay": "greenhouse post-emergence herbicidal test", "assay_type": "in vivo", "conditions": "scale 0 to 100", "description": "as §1, §2, §3, §4, §5"}, "Echinocloa crus-galli": {"test_system": "Echinocloa crus-galli", "conditions": "post-emergence, application rate 2 kg/ha; scale 0 to 100", "description": "as §1, §2, §3, §4, §5"}, "Setaria faberi": {"test_system": "Setaria faberi", "conditions": "pre-emergence, application rate 2 kg/ha; scale 0 to 100", "description": "as §1\n(§6) The containers were irrigated gently to promote germination and growth and subsequently covered with transparent plastic hoods until the plants had rooted. This cover caused uniform germination of the test plants, unless this had been impaired by the active ingredients.\nas §3, §4, §5"}, "Abutilon theophrasti [3]": {"test_system": "Abutilon theophrasti", "conditions": "pre-emergence, application rate 2 kg/ha; scale 0 to 100", "description": "as §1, §6, §3, §4, §5"}, "Amaranthus retroflexus [4]": {"test_system": "Amaranthus retroflexus", "conditions": "pre-emergence, application rate 2 kg/ha; scale 0 to 100", "description": "as §1, §6, §3, §4, §5"}, "Polygonum convolvulus": {"test_system": "Polygonum convolvulus", "conditions": "post-emergence, application rate 0.25 kg/ha; scale 0 to 100", "description": "as §1, §2, §3, §4, §5"}, "Sesbania exaltata": {"test_system": "Sesbania exaltata", "conditions": "post-emergence, application rate 0.25 kg/ha; scale 0 to 100", "description": "as §1, §2, §3, §4, §5"}, "Alopecurus myosuroides": {"test_system": "Alopecurus myosuroides", "conditions": "post-emergence, scale 0 to 100", "description": "as §1, §2, §3, §4, §5"}}, "note": "Where two headings read alike, the source gives them in different places.", "data": [{"smiles": "COC(=O)C1Cc2c(Cl)cc3c(c2O1)B(O)OC3", "note": "(single isomer, unassigned) [Compound 7]", "values": [{"measurement": "herbicidal activity against Abutilon theophrasti", "setting": "Abutilon theophrasti [1]; application rate 2 kg/ha", "result": 100, "unit": "%"}, {"measurement": "herbicidal activity against Amaranthus retroflexus", "setting": "Amaranthus retroflexus [2]; application rate 2 kg/ha", "result": 100, "unit": "%"}, {"measurement": "herbicidal activity against Avena fatua", "setting": "Avena fatua", "result": 100, "unit": "%"}]}, {"smiles": "CCOC(=O)C1COc2ccc3c(c2O1)B(O)OC3", "note": "(stereo not drawn) [Compound 15]", "values": [{"measurement": "herbicidal activity against Abutilon theophrasti", "setting": "Abutilon theophrasti [1]; application rate 2 kg/ha", "result": 90, "unit": "%"}, {"measurement": "herbicidal activity against Amaranthus retroflexus", "setting": "Amaranthus retroflexus [2]; application rate 2 kg/ha", "result": 90, "unit": "%"}]}, {"smiles": "CCOC(=O)C1Oc2ccc3c(c2O1)B(O)OC3", "note": "(stereo not drawn) [Compound 3, ethyl 1-hydroxy-3H-[1,3]dioxolo[4,5-g][2,1]benzoxaborole-7-carboxylate]", "values": [{"measurement": "herbicidal activity against Amaranthus retroflexus", "setting": "Amaranthus retroflexus [2]; application rate 2 kg/ha", "result": 100, "unit": "%"}, {"measurement": "herbicidal activity against Setaria viridis", "setting": "Setaria viridis; application rate 2 kg/ha", "result": 100, "unit": "%"}]}, {"smiles": "COC(=O)C1Cc2c(Cl)cc3c(c2O1)B(O)OC3", "note": "(single isomer, unassigned) [Compound 8]", "values": [{"measurement": "herbicidal activity against Amaranthus retroflexus", "setting": "Amaranthus retroflexus [2]; application rate 2 kg/ha", "result": 100, "unit": "%"}, {"measurement": "herbicidal activity against Setaria viridis", "setting": "Setaria viridis; application rate 2 kg/ha", "result": 100, "unit": "%"}, {"measurement": "herbicidal activity against Echinocloa crus-galli", "setting": "Echinocloa crus-galli", "result": 100, "unit": "%"}, {"measurement": "herbicidal activity against Setaria faberi", "setting": "Setaria faberi", "result": 80, "unit": "%"}]}, {"smiles": "COC(=O)C1Cc2ccc3c(c2O1)B(O)OC3", "note": "(stereo not drawn) [Compound 5]", "values": [{"measurement": "herbicidal activity against Amaranthus retroflexus", "setting": "Amaranthus retroflexus [2]; application rate 2 kg/ha", "result": 100, "unit": "%"}, {"measurement": "herbicidal activity against Setaria viridis", "setting": "Setaria viridis; application rate 2 kg/ha", "result": 100, "unit": "%"}, {"measurement": "herbicidal activity against Echinocloa crus-galli", "setting": "Echinocloa crus-galli", "result": 100, "unit": "%"}, {"measurement": "herbicidal activity against Abutilon theophrasti", "setting": "Abutilon theophrasti [3]", "result": 80, "unit": "%"}, {"measurement": "herbicidal activity against Amaranthus retroflexus", "setting": "Amaranthus retroflexus [4]", "result": 95, "unit": "%"}, {"measurement": "herbicidal activity against Setaria faberi", "setting": "Setaria faberi", "result": 85, "unit": "%"}]}, {"smiles": "COC(=O)C1Cc2c(c(Cl)cc3c2B(O)OC3C)O1", "note": "(stereo not drawn) [Compound 9, methyl-5-chloro-1-hydroxy-3-methyl-7,8-dihydro-3H-furo[2,3-g][2,1]benzoxaborole-7-carboxylate]", "values": [{"measurement": "herbicidal activity against Abutilon theophrasti", "setting": "Abutilon theophrasti [1]; application rate 2 kg/ha", "result": 100, "unit": "%"}, {"measurement": "herbicidal activity against Amaranthus retroflexus", "setting": "Amaranthus retroflexus [2]; application rate 2 kg/ha", "result": 100, "unit": "%"}, {"measurement": "herbicidal activity against Avena fatua", "setting": "Avena fatua", "result": 98, "unit": "%"}]}, {"smiles": "O=C(O)C1Cc2c(F)cc3c(c2O1)B(O)OC3", "note": "(stereo not drawn) [Compound 13]", "values": [{"measurement": "herbicidal activity against Amaranthus retroflexus", "setting": "Amaranthus retroflexus [2]; application rate 0.25 kg/ha", "result": 100, "unit": "%"}, {"measurement": "herbicidal activity against Polygonum convolvulus", "setting": "Polygonum convolvulus", "result": 85, "unit": "%"}, {"measurement": "herbicidal activity against Sesbania exaltata", "setting": "Sesbania exaltata", "result": 100, "unit": "%"}]}, {"smiles": "COC(=O)C1Cc2ccc3c(c2C1)B(O)OC3", "note": "(stereo not drawn) [Compound 14]", "values": [{"measurement": "herbicidal activity against Abutilon theophrasti", "setting": "Abutilon theophrasti [1]; application rate 0.25 kg/ha", "result": 100, "unit": "%"}, {"measurement": "herbicidal activity against Amaranthus retroflexus", "setting": "Amaranthus retroflexus [2]; application rate 0.25 kg/ha", "result": 100, "unit": "%"}, {"measurement": "herbicidal activity against Sesbania exaltata", "setting": "Sesbania exaltata", "result": 100, "unit": "%"}]}, {"smiles": "COC(=O)C1Oc2ccc3c(c2O1)B(O)OC3", "note": "(stereo not drawn) [Compound 4]", "values": [{"measurement": "herbicidal activity against Abutilon theophrasti", "setting": "Abutilon theophrasti [1]; application rate 2 kg/ha", "result": 100, "unit": "%"}, {"measurement": "herbicidal activity against Amaranthus retroflexus", "setting": "Amaranthus retroflexus [2]; application rate 2 kg/ha", "result": 100, "unit": "%"}]}, {"smiles": "COC(=O)C1Cc2c(ccc3c2B(O)OC3)O1", "note": "(stereo not drawn) [Compound 17]", "values": [{"measurement": "herbicidal activity against Amaranthus retroflexus", "setting": "Amaranthus retroflexus [2]; application rate 2 kg/ha", "result": 100, "unit": "%"}]}, {"smiles": "CCOC(=O)C1COc2c(ccc3c2B(O)OC3)O1", "note": "(stereo not drawn) [Compound 16]", "values": [{"measurement": "herbicidal activity against Amaranthus retroflexus", "setting": "Amaranthus retroflexus [2]; application rate 2 kg/ha", "result": 100, "unit": "%"}]}, {"smiles": "O=C(O)C1Cc2c(C(F)(F)F)cc3c(c2C1)B(O)OC3", "note": "(stereo not drawn) [Compound 22]", "values": [{"measurement": "herbicidal activity against Abutilon theophrasti", "setting": "Abutilon theophrasti [1]; application rate 1 kg/ha", "result": 100, "unit": "%"}, {"measurement": "herbicidal activity against Amaranthus retroflexus", "setting": "Amaranthus retroflexus [2]; application rate 1 kg/ha", "result": 100, "unit": "%"}, {"measurement": "herbicidal activity against Alopecurus myosuroides", "setting": "Alopecurus myosuroides; application rate 1 kg/ha", "result": 95, "unit": "%"}]}, {"smiles": "O=C(O)C1CCc2ccc3c(c2C1)B(O)OC3", "note": "(stereo not drawn) [Compound 21]", "values": [{"measurement": "herbicidal activity against Amaranthus retroflexus", "setting": "Amaranthus retroflexus [2]; application rate 1 kg/ha", "result": 100, "unit": "%"}, {"measurement": "herbicidal activity against Setaria viridis", "setting": "Setaria viridis; application rate 1 kg/ha", "result": 80, "unit": "%"}, {"measurement": "herbicidal activity against Alopecurus myosuroides", "setting": "Alopecurus myosuroides; application rate 1 kg/ha", "result": 80, "unit": "%"}]}, {"smiles": "O=C(O)C1Cc2c(ccc3c2B(O)OC3)O1", "note": "(stereo not drawn) [Compound 18]", "values": [{"measurement": "herbicidal activity against Amaranthus retroflexus", "setting": "Amaranthus retroflexus [2]; application rate 1 kg/ha", "result": 100, "unit": "%"}, {"measurement": "herbicidal activity against Setaria viridis", "setting": "Setaria viridis; application rate 1 kg/ha", "result": 90, "unit": "%"}]}, {"smiles": "COC(=O)C1Cc2c(F)cc3c(c2O1)B(O)OC3", "note": "(stereo not drawn) [Compound 12]", "values": [{"measurement": "herbicidal activity against Amaranthus retroflexus", "setting": "Amaranthus retroflexus [2]; application rate 0.25 kg/ha", "result": 100, "unit": "%"}, {"measurement": "herbicidal activity against Polygonum convolvulus", "setting": "Polygonum convolvulus", "result": 95, "unit": "%"}, {"measurement": "herbicidal activity against Sesbania exaltata", "setting": "Sesbania exaltata", "result": 100, "unit": "%"}]}, {"smiles": "COC(=O)C1CCc2ccc3c(c2C1)B(O)OC3", "note": "(stereo not drawn) [Compound 20]", "values": [{"measurement": "herbicidal activity against Abutilon theophrasti", "setting": "Abutilon theophrasti [1]; application rate 1 kg/ha", "result": 100, "unit": "%"}, {"measurement": "herbicidal activity against Amaranthus retroflexus", "setting": "Amaranthus retroflexus [2]; application rate 1 kg/ha", "result": 100, "unit": "%"}, {"measurement": "herbicidal activity against Setaria viridis", "setting": "Setaria viridis; application rate 1 kg/ha", "result": 100, "unit": "%"}]}, {"smiles": "O=C(O)C1Oc2ccc3c(c2O1)B(O)OC3", "note": "(stereo not drawn) [Compound 2, 1-hydroxy-3H-[1,3]dioxolo[4,5-g][2,1]benzoxaborole-7-carboxylic acid]", "values": [{"measurement": "herbicidal activity against Abutilon theophrasti", "setting": "Abutilon theophrasti [1]; application rate 2 kg/ha", "result": 90, "unit": "%"}, {"measurement": "herbicidal activity against Amaranthus retroflexus", "setting": "Amaranthus retroflexus [2]; application rate 2 kg/ha", "result": 100, "unit": "%"}, {"measurement": "herbicidal activity against Setaria viridis", "setting": "Setaria viridis; application rate 2 kg/ha", "result": 80, "unit": "%"}]}, {"smiles": "COC(=O)C1Cc2c(C(F)(F)F)cc3c(c2C1)B(O)OC3", "note": "(stereo not drawn) [Compound 19]", "values": [{"measurement": "herbicidal activity against Abutilon theophrasti", "setting": "Abutilon theophrasti [1]; application rate 1 kg/ha", "result": 100, "unit": "%"}, {"measurement": "herbicidal activity against Amaranthus retroflexus", "setting": "Amaranthus retroflexus [2]; application rate 1 kg/ha", "result": 100, "unit": "%"}, {"measurement": "herbicidal activity against Setaria viridis", "setting": "Setaria viridis; application rate 1 kg/ha", "result": 90, "unit": "%"}]}, {"smiles": "O=C(O)C1Cc2ccc3c(c2O1)B(O)OC3", "note": "(stereo not drawn) [Compound 6]", "values": [{"measurement": "herbicidal activity against Abutilon theophrasti", "setting": "Abutilon theophrasti [1]; application rate 2 kg/ha", "result": 100, "unit": "%"}, {"measurement": "herbicidal activity against Amaranthus retroflexus", "setting": "Amaranthus retroflexus [2]; application rate 2 kg/ha", "result": 100, "unit": "%"}, {"measurement": "herbicidal activity against Alopecurus myosuroides", "setting": "Alopecurus myosuroides; application rate 2 kg/ha", "result": 98, "unit": "%"}, {"measurement": "herbicidal activity against Amaranthus retroflexus", "setting": "Amaranthus retroflexus [4]", "result": 80, "unit": "%"}]}]}
